Data published in patent US20260138978A1, “POSITIVE ALLOSTERIC MODULATORS OF THE MUSCARINIC ACETYLCHOLINE RECEPTOR M1” (Vanderbilt University, priority 2022, published 2026).

Assays:
human mAChRM1 [1] = target: T1, human mAChRM1 (Homo sapiens, UniProt P11229); assay: mAChR M1 cell-based functional assay (calcium mobilization), agonist activity upon compound addition, Emax relative to acetylcholine maximum; details: for Agonist Activity Human M1 EC50 / EC50: calcium mobilization upon compound addition; for Emax: relative to the maximum for acetylcholine
T1 construct: host or cells: CHO-K1
T1 sequence (P11229 1-460): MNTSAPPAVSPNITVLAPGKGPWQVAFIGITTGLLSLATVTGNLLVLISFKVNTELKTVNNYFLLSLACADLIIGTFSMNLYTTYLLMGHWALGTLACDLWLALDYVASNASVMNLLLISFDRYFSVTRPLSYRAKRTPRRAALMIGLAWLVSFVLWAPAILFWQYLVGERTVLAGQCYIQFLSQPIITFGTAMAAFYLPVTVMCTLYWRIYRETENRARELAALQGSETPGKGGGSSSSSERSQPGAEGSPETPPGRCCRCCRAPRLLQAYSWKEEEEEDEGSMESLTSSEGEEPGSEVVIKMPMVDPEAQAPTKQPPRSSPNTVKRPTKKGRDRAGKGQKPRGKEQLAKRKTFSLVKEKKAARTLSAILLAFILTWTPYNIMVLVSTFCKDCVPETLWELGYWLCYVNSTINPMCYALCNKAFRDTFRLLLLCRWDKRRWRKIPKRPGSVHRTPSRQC
In short: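 Emax is given as a percentage of the maximal acetylcholine response, from four-parameter curves of compound-evoked calcium mobilization. Human M1-transfected CHO-K1 cells carried Fluo-4 dye, and compound (11 concentrations, 1:3 steps) was applied at 4 s of a 300 s kinetic fluorescence recording.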

human mAChRM1 [2] = target: T1, human mAChRM1; assay: mAChR M1 cell-based functional assay (calcium mobilization), positive allosteric modulator activity: increase in the EC20 acetylcholine response; details: for Emax: PAM mode; for EC50: read-out: PAM Activity Human M1 EC50
In short: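 Potentiation is scored as the rise in an EC20 acetylcholine-evoked calcium signal across 11-point (1:3) compound series, fitted with a four-parameter logistic equation to give EC50 and Emax. Read-out is Fluo-4 fluorescence ratio in hM1-transfected CHO-K1 cells, measured kinetically on FDSS.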

[3] = increase in the EC20 acetylcholine response

Agonist Activity Human M1 EC50 (human mAChRM1 [1])	Emax (human mAChRM1 [2])	EC50 (human mAChRM1 [2]; [3])	EC50 (human mAChRM1 [1])	Emax (human mAChRM1 [1])	PAM Activity Human M1 EC50 (human mAChRM1 [2]; [3])	SMILES
inactive	81%	118 nM				Cn1cc2c(-c3cc(F)c(CN4Cc5cccc(F)c5C4=O)c(F)c3)ccc(C3(O)COC3)c2n1 [Compound 159, 2-(2,6-difluoro-4-(7-(3-hydroxyoxetan-3-yl)-2-methyl-2H-indazol-4-yl)benzyl)-7-fluoroisoindolin-1-one]
inactive	88%	623 nM				[2H]C1([2H])c2ncccc2C(=O)N1Cc1ccc(-c2ccc(C(C)(C)O)c3nn(C)cc23)c(F)c1F [Compound 149, 6-(2,3-Difluoro-4-(7-(2-hydroxypropan-2-yl)-2-methyl-2H-indazol-4-yl)benzyl)-6,7-dihydro-5H-pyrrolo[3,4-b]pyridin-5-one-7,7-d2]
inactive	59%	4680 nM				Cn1cc2c(-c3cc(F)c(CN4Cc5c(F)cccc5C4=O)c(F)c3)ccc(C(C)(C)O)c2n1 [Compound 106, 2-(2,6-difluoro-4-(7-(2-hydroxypropan-2-yl)-2-methyl-2H-indazol-4-yl)benzyl)-4-fluoroisoindolin-1-one]
inactive	88%	211 nM				Cn1cc2c(-c3cc(F)c(CN4Cc5ncccc5C4=O)c(F)c3)ccc(C(C)(O)C(F)F)c2n1 (stereo not shown) [Compound 100, 6-(4-(7-(1,1-difluoro-2-hydroxypropan-2-yl)-2-methyl-2H-indazol-4-yl)-2,6-difluorobenzyl)-6,7-dihydro-5H-pyrrolo[3,4-b]pyridin-5-one]
inactive	76%	744 nM				Cn1cc2cc(-c3ccc(CN4Cc5cccc(F)c5C4=O)c(F)c3)cc(C(C)(C)O)c2n1 [Compound 166, 7-fluoro-2-(2-fluoro-4-(7-(2-hydroxypropan-2-yl)-2-methyl-2H-indazol-5-yl)benzyl)isoindolin-1-one]
inactive	74%	3120 nM				Cc1cc(-c2cc(C(C)(C)O)c3nn(C)cc3c2)ccc1CN1Cc2cccc(F)c2C1=O [Compound 167, 7-fluoro-2-(4-(7-(2-hydroxypropan-2-yl)-2-methyl-2H-indazol-5-yl)-2-methylbenzyl)isoindolin-1-one]
inactive	64%	≥ 10000 nM				CC(C)(O)c1ccc(-c2cc(F)c(CN3Cc4ncccc4C3=O)c(F)c2)c2ccccc12 [Compound 71, 6-(2,6-difluoro-4-(4-(2-hydroxypropan-2-yl)naphthalen-1-yl)benzyl)-6,7-dihydro-5H-pyrrolo[3,4-b]pyridin-5-one]
inactive	49%	≥ 10000 nM				Cn1nc(C(C)(C)O)cc1-c1cc(F)c(CN2Cc3ncccc3C2=O)c(C2CC2)c1 [Compound 68, 6-(2-cyclopropyl-6-fluoro-4-(3-(2-hydroxypropan-2-yl)-1-methyl-1H-pyrazol-5-yl)benzyl)-6,7-dihydro-5H-pyrrolo[3,4-b]pyridin-5-one]
inactive	70%	1800 nM				CC(C)(O)c1cc2cc(-c3cc(F)c(CN4Cc5ncccc5C4=O)c(F)c3)ccn2n1 [Compound 108, 6-(2,6-difluoro-4-(2-(2-hydroxypropan-2-yl)pyrazolo[1,5-a]pyridin-5-yl)benzyl)-6,7-dihydro-5H-pyrrolo[3,4-b]pyridin-5-one]
inactive	65%	6400 nM				CC(C)(O)c1ccc(-c2ccc(CN3Cc4ncccc4C3=O)cc2)cc1 [Compound 11, 6-((4′-(2-hydroxypropan-2-yl)-[1,1′-biphenyl]-4-yl)methyl)-6,7-dihydro-5H-pyrrolo[3,4-b]pyridin-5-one]
inactive	66%	1200 nM				CC(C)(O)c1ccc(-c2cc(F)c(CN3Cc4ncccc4C3=O)cc2F)cc1 [Compound 49, 6-((2,5-difluoro-4′-(2-hydroxypropan-2-yl)-[1,1′-biphenyl]-4-yl)methyl)-6,7-dihydro-5H-pyrrolo[3,4-b]pyridin-5-one]
	62%	145 nM	3780 nM	12%		[2H]C1([2H])c2ncccc2C(=O)N1Cc1c(F)cc(-c2ccc(C(C)(C)O)c3nn(C([2H])([2H])[2H])cc23)cc1F [Compound 145, 6-(2,6-difluoro-4-(7-(2-hydroxypropan-2-yl)-2-(methyl-d3)-2H-indazol-4-yl)benzyl)-6,7-dihydro-5H-pyrrolo[3,4-b]pyridin-5-one-7,7-d2]

The remaining lines, values behind:

SMILES	Agonist Activity Human M1 EC50 (human mAChRM1 [1])	Emax (human mAChRM1 [2])	EC50 (human mAChRM1 [2]; [3])	EC50 (human mAChRM1 [1])	Emax (human mAChRM1 [1])	PAM Activity Human M1 EC50 (human mAChRM1 [2]; [3])
CC(C)(O)c1ccc(-c2ccc(CN3Cc4cccnc4C3=O)c(F)c2)cc1 [Compound 127, 6-((3-fluoro-4′-(2-hydroxypropan-2-yl)-[1,1′-biphenyl]-4-yl)methyl)-5,6-dihydro-7H-pyrrolo[3,4-b]pyridin-7-one]	inactive	81%	4530 nM			
Cn1cc2c(-c3cc(F)c(CN4Cc5ccncc5C4=O)c(F)c3)ccc(C(C)(C)O)c2n1 [Compound 140, 2-(2,6-difluoro-4-(7-(2-hydroxypropan-2-yl)-2-methyl-2H-indazol-4-yl)benzyl)-1,2-dihydro-3H-pyrrolo[3,4-c]pyridin-3-one]		76%	84 nM	5640 nM	41%	
Cn1cc2c(C(C)(C)O)cc(-c3ccc(CN4Cc5ncccc5C4=O)c(F)c3)cc2n1 [Compound 21, 6-(2-fluoro-4-(4-(2-hydroxypropan-2-yl)-2-methyl-2H-indazol-6-yl)benzyl)-6,7-dihydro-5H-pyrrolo[3,4-b]pyridin-5-one]	inactive	50%	≥ 10000 nM			
CC(C)(O)c1ccc(-c2ccc(CN3Cc4cccnc4C3=O)cc2)cc1 [Compound 128, 6-((4′-(2-hydroxypropan-2-yl)-[1,1′-biphenyl]-4-yl)methyl)-5,6-dihydro-7H-pyrrolo[3,4-b]pyridin-7-one]	inactive	57%	7140 nM			
Cn1cc2c(-c3cc(F)c(CN4Cc5cccc(F)c5C4=O)c(F)c3)ccc(C(C)(O)C(F)F)c2n1 (stereo not shown) [Compound 158, 2-(4-(7-(1,1-difluoro-2-hydroxypropan-2-yl)-2-methyl-2H-indazol-4-yl)-2,6-difluorobenzyl)-7-fluoroisoindolin-1-one]	inactive	77%	450 nM			
CC(C)(O)c1ccc(-c2cc(F)c(CN3Cc4ccncc4C3=O)c(F)c2)cc1 [Compound 141, 2-((3,5-difluoro-4′-(2-hydroxypropan-2-yl)-[1,1′-biphenyl]-4-yl)methyl)-1,2-dihydro-3H-pyrrolo[3,4-c]pyridin-3-one]	inactive	79%	1010 nM			
Cc1cc(-c2cc(C(C)(C)O)c3cn(C)nc3c2)ccc1CN1Cc2ncccc2C1=O [Compound 22, 6-(4-(4-(2-hydroxypropan-2-yl)-2-methyl-2H-indazol-6-yl)-2-methylbenzyl)-6,7-dihydro-5H-pyrrolo[3,4-b]pyridin-5-one]	inactive					inactive
CC(C)(O)c1cc(-c2cc(F)c(CN3Cc4ncccc4C3=O)c(F)c2)c2[nH]nnc2c1 [Compound 83, 6-(2,6-difluoro-4-(5-(2-hydroxypropan-2-yl)-1H-benzo[d][1,2,3]triazol-7-yl)benzyl)-6,7-dihydro-5H-pyrrolo[3,4-b]pyridin-5-one]	inactive	39%	≥ 10000 nM			
[2H]C1([2H])c2ncccc2C(=O)N1Cc1c(F)cc(-c2ccc(C(C)(C)O)c3nn(C)cc23)cc1F [Compound 142, 6-(2,6-Difluoro-4-(7-(2-hydroxypropan-2-yl)-2-methyl-2H-indazol-4-yl)benzyl)-6,7-dihydro-5H-pyrrolo[3,4-b]pyridin-5-one-7,7-d2]		87%	119 nM	4020 nM	31%	
Cn1cc2cc(-c3ccc(CN4Cc5ncccc5C4=O)c(F)c3)cc(C(C)(C)O)c2n1 [Compound 34, 6-(2-fluoro-4-(7-(2-hydroxypropan-2-yl)-2-methyl-2H-indazol-5-yl)benzyl)-6,7-dihydro-5H-pyrrolo[3,4-b]pyridin-5-one]		65%	326 nM	≥ 10000 nM	17%	
Cn1cc2c(-c3cc(F)c(CN4Cc5cccnc5C4=O)c(C4CC4)c3)ccc(C(C)(C)O)c2n1 [Compound 133, 6-(2-cyclopropyl-6-fluoro-4-(7-(2-hydroxypropan-2-yl)-2-methyl-2H-indazol-4-yl)benzyl)-5,6-dihydro-7H-pyrrolo[3,4-b]pyridin-7-one]		79%	61 nM	4420 nM	72%	
